Key:
Adenosine receptor A1 = target: T1, Adenosine receptor A1 (Rattus norvegicus, UniProt P25099)
T1 sequence (P25099 whole entry): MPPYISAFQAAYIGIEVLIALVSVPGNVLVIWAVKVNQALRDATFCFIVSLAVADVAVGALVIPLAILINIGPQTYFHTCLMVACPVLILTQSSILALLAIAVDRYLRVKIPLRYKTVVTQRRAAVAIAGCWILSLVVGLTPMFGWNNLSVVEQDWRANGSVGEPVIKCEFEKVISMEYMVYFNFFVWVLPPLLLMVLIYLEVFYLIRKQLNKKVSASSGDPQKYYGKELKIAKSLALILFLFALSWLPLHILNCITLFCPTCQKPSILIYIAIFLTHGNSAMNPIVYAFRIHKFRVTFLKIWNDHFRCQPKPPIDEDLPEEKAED

Adenosine receptor A2a = Adenosine receptor A2a (Rattus norvegicus, UniProt P30543)
Sequence of Adenosine receptor A2a (P30543 whole entry): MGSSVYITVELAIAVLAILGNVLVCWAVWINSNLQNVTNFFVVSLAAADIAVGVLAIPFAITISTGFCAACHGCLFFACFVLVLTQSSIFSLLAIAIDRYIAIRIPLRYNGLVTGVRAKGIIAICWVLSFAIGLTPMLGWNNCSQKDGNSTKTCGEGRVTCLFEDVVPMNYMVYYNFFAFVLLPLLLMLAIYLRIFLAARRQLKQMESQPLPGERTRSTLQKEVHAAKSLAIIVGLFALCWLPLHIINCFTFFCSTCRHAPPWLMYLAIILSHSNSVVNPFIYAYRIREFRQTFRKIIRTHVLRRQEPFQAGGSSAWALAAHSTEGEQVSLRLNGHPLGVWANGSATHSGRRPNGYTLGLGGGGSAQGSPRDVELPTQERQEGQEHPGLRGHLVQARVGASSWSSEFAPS

| Compound | Ki (Adenosine receptor A1) [nM] | Ki (Adenosine receptor A2a) [nM] |
| --- | --- | --- |
| CCNC(=O)[C@H]1OC(n2cnc3c(N)nc(C#CC(O)c4ccccc4)nc32)[C@@H](O)[C@H]1O (stereo partly drawn) [5-[6-Amino-2-(3-hydroxy-3-phenyl-prop-1-ynyl)-purin-9-yl]-3,4-dihydroxy-tetrahydro-furan-2-carboxylic acid ethylamide] | 5.9 | 2.6 |
| CCCCC#Cc1nc(N)c2ncn([C@@H]3O[C@H](C(=O)NCC)[C@H](O)C3O)c2n1 (stereo partly drawn) [(2S,3R,5R)-5-[6-amino-2-(hex-1-yn-1-yl)-9H-purin-9-yl]-N-ethyl-3,4-dihydroxyoxolane-2-carboxamide] | 130 | 2.2 |
| CCNC(=O)C1OC(n2cnc3c(N)nc(C#CC(O)c4ccccc4)nc32)C(O)C1O (stereo not drawn) [R,S-PHPNECA] | 2.5 | 0.9 |
| CCNC(=O)[C@@H]1OC(n2cnc3c(N)nc(C#CC(O)c4ccccc4)nc32)[C@H](O)[C@@H]1O (stereo partly drawn) [S-PHPNECA] | 4 | 0.5 |
